Read-outs that look alike come from different tables or passages of the source.
How the values were obtained:
androgen receptor (hAR) [1] = target: T1, androgen receptor (hAR) (Homo sapiens (Human), UniProt P10275); test: biochemical; format: binding
Procedure: In order to examine binding ability of the agonists of the present invention to androgen receptors, the following in-vitro experiment was performed. African green monkey kidney fibroblast-like cell line, COS-7 (ATCC, #CRL-1651) was seeded in a 48-well plate at a density of 2.5×10^4 cells/well, and cultured for 24 hours. Then, a plasmid hAR-mixed medium was added thereto. […] Thereafter, the cells were lysed and the amount of [3H]MIB bound to the intracellular androgen receptors was measured using a radiation dosimeter.

androgen receptor (hAR) [2] = target: T1, androgen receptor (hAR); test: Test of transcriptional activity (hAR / ARE-Luc dual-luciferase assay in CHO cells); format: cell-based; conditions: EC50 [nM] (mean ± SE), CHO cells with hAR and ARE-Luc, 24 hours; 10 nM DHT = 100%
Method in brief: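 CHO cells cultured 24 h, then transfected with hAR and ARE-Luc plasmids. Transfected cells treated with 0.1˜10,000 nM compound for 24 h; transcriptional activity read by dual-luciferase reporter.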

castrated male rats = test: Efficacy test in castrated male rat (Hershberger assay); format: in vivo, SD (Sprague-Dawley) rat; conditions: castrated male SD rats, oral once a day for 14 days
Procedure: SD (Sprague-Dawley) male rats (7-week-old) were castrated under ketamine/xylazine anesthesia, and 5 rats were randomly assigned to one group. From the next day, the agonists were dissolved in a vehicle solution and orally administered at a dose of 5 ml per kg once a day for 14 days. As the vehicle, DMSO, Co-solvent, and DW were prepared at a ratio of 4:80:16 (v/v/v), and Co-solvent was prepared by mixing PEG400, Ethanol, and Tween 80 at a ratio of 85:10:5 (v/v/v). 24 hours after last administration of the drug, their body weight was measured and killed. Thereafter, levator ani muscle, ventral prostate, and seminal vesicles were removed and weighed (Hershberger assay). The following Table 6 represents the result of the efficacy test in castrated male rats.

[3] = 1 nM [3H]MIB, hAR-transfected COS-7 cells, 2 hours, read-out: IC50 [nM] (mean ± SE)

T1 sequence (P10275 whole entry): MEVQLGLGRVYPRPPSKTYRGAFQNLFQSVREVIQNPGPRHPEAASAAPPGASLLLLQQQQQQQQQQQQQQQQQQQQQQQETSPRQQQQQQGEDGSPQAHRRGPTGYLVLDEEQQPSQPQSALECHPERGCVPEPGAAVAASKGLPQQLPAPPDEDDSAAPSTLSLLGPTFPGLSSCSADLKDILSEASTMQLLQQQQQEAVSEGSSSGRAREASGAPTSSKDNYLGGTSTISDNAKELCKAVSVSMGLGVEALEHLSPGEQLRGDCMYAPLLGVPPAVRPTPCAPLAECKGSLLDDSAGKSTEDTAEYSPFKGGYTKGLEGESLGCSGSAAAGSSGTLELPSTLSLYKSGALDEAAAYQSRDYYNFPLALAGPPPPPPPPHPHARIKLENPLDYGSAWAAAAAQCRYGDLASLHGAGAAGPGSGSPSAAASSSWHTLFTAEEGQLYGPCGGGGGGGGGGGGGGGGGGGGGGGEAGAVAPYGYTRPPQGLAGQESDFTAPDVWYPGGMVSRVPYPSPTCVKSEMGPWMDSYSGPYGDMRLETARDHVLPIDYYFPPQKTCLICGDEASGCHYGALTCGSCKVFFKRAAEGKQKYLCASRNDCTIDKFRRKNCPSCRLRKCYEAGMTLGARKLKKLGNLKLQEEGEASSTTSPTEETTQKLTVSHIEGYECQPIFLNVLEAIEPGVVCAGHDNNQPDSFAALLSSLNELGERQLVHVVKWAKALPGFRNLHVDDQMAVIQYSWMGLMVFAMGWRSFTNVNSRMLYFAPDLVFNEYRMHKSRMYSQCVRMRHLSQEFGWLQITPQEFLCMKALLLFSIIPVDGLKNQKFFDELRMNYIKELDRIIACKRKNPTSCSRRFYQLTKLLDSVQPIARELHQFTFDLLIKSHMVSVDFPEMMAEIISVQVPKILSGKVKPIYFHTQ

N#Cc1ccc(N2C[C@@H](COc3ccc([N+](=O)[O-])cc3)O[C@@H]2C(F)(F)F)cc1C(F)(F)F [Example 8, 4-((2R,5S)-5-((4-nitrophenoxy)methyl)-2-(trifluoromethyl)oxazolidin-3-yl)-2-(trifluoromethyl)benzonitrile]
IC50 (androgen receptor (hAR) [1]; [3]): 13.7 nM
EC50 (androgen receptor (hAR) [2]): 20 nM

N#Cc1ccc(N2C[C@@H](COc3ccc(Cl)cc3)O[C@@H]2C(F)(F)F)cc1C(F)(F)F [Example 56, 4-((2R,5S)-5-((4-chlorophenoxy)methyl)-2-(trifluoromethyl)oxazolidin-3-yl)-2-(trifluoromethyl)benzonitrile]
IC50 (androgen receptor (hAR) [1]; [3]): 75.1 nM
EC50 (androgen receptor (hAR) [2]): 75.1 nM

N#Cc1ccc(N2C[C@@H](COc3ccc([N+](=O)[O-])c(F)c3)O[C@@H]2C(F)(F)F)cc1C(F)(F)F [Example 31]
IC50 (androgen receptor (hAR) [1]; [3]): 14.1 nM
EC50 (androgen receptor (hAR) [2]): 17.7 nM

N#Cc1ccc(N2C[C@@H](COc3cc(F)c(F)cc3F)O[C@@H]2C(F)(F)F)cc1C(F)(F)F [Example 13, 2-(trifluoromethyl)-4-((2R,5S)-2-(trifluoromethyl)-5-((2,4,5-trifluorophenoxy)methyl)oxazolidin-3-yl)benzonitrile]
IC50 (androgen receptor (hAR) [1]; [3]): 14.5 nM
EC50 (androgen receptor (hAR) [2]): 9.9 nM

N#Cc1ccc(N2C[C@@H](CSc3ccc(Cl)cc3)O[C@@H]2C(F)(F)F)cc1C(F)(F)F [Example 26, 4-((2R,5S)-5-(((4-chlorophenyl)thio)methyl)-2-(trifluoromethyl)oxazolidin-3-yl)-2-(trifluoromethyl)benzonitrile]
IC50 (androgen receptor (hAR) [1]; [3]): 43.6 nM
EC50 (androgen receptor (hAR) [2]): 8.6 nM

COC(=O)c1ccc(OC[C@@H]2CN(c3ccc(C#N)c(C(F)(F)F)c3)[C@@H](C(F)(F)F)O2)cc1 [Example 7, methyl 4-(((2R,5S)-3-(4-cyano-3-(trifluoromethyl)phenyl)-2-(trifluoromethyl)oxazolidin-5-yl)methoxy)benzoate]
IC50 (androgen receptor (hAR) [1]; [3]): 15.7 nM
EC50 (androgen receptor (hAR) [2]): 13.1 nM

N#Cc1ccc(OC[C@@H]2CN(c3ccc(C#N)c(C(F)(F)F)c3)[C@@H](C(F)(F)F)O2)cc1 [Example 19, 4-((2R,5S)-5-((4-cyanophenoxy)methyl)-2-(trifluoromethyl)oxazolidin-3-yl)-2-(trifluoromethyl)benzonitrile]
IC50 (androgen receptor (hAR) [1]; [3]): 7.6 nM
EC50 (androgen receptor (hAR) [2]): 1 nM
levator ani muscle weight % relative to intact control group (castrated male rats; 0.3 mg/kg): 7.2 ± 4.3%
seminal vesicles weight % relative to intact control group (castrated male rats; 0.3 mg/kg): 4.8 ± 1.3%
ventral prostate weight % relative to intact control group (castrated male rats; 0.3 mg/kg): 1.7 ± 0.6%
levator ani muscle weight % relative to intact control group (castrated male rats; 1 mg/kg): 45.9 ± 5.8%
seminal vesicles weight % relative to intact control group (castrated male rats; 1 mg/kg): 78.2 ± .1%
ventral prostate weight % relative to intact control group (castrated male rats; 1 mg/kg): 10.2 ± 3.9%
levator ani muscle weight % relative to intact control group (castrated male rats; 3 mg/kg): 70.6 ± 6.6%
seminal vesicles weight % relative to intact control group (castrated male rats; 3 mg/kg): 17.3 ± 5.6%
ventral prostate weight % relative to intact control group (castrated male rats; 3 mg/kg): 11.4 ± 3.0%
levator ani muscle weight % relative to intact control group (castrated male rats; 10 mg/kg): 63.9 ± 4.8%
seminal vesicles weight % relative to intact control group (castrated male rats; 10 mg/kg): 22.9 ± 4.3%
ventral prostate weight % relative to intact control group (castrated male rats; 10 mg/kg): 14.4 ± 2.7%
levator ani muscle weight % relative to intact control group (castrated male rats; 30 mg/kg): 78.4 ± 11.0%
seminal vesicles weight % relative to intact control group (castrated male rats; 30 mg/kg): 33.4 ± 2.0%
ventral prostate weight % relative to intact control group (castrated male rats; 30 mg/kg): 18.3 ± 4.5%
levator ani muscle weight % relative to intact control group (castrated male rats; 100 mg/kg): 68.3 ± 7.3%
seminal vesicles weight % relative to intact control group (castrated male rats; 100 mg/kg): 36.4 ± 9.2%
ventral prostate weight % relative to intact control group (castrated male rats; 100 mg/kg): 18.0 ± 5.2%

N#Cc1ccc(OC[C@@H]2CN(c3ccc(C#N)c(C(F)(F)F)c3)[C@H](C(F)(F)F)O2)cc1 [Example 6, 4-((2S,5S)-5-((4-cyanophenoxy)methyl)-2-(trifluoromethyl)oxazolidin-3-yl)-2-(trifluoromethyl)benzonitrile]
IC50 (androgen receptor (hAR) [1]; [3]): 11 nM
EC50 (androgen receptor (hAR) [2]): 4.1 nM

N#Cc1ccc(COC[C@@H]2CN(c3ccc(C#N)c(C(F)(F)F)c3)[C@@H](C(F)(F)F)O2)cc1 [Example 2, 4-((2R,5S)-5-(((4-cyanobenzyl)oxy)methyl)-2-(trifluoromethyl)oxazolidin-3-yl)-2-(trifluoromethyl)benzonitrile]
IC50 (androgen receptor (hAR) [1]; [3]): 23.9 nM
EC50 (androgen receptor (hAR) [2]): 133 nM

N#Cc1ccc(N2C[C@@H](COc3ccc(F)c(F)c3)O[C@@H]2C(F)(F)F)cc1C(F)(F)F [Example 10, 4-((2R,5S)-5-((3,4-difluorophenoxy)methyl)-2-(trifluoromethyl)oxazolidin-3-yl)-2-(trifluoromethyl)benzonitrile]
IC50 (androgen receptor (hAR) [1]; [3]): 6.3 nM
EC50 (androgen receptor (hAR) [2]): 11.1 nM

N#Cc1ccc(OC[C@@H]2CN(c3ccc(C#N)c(C(F)(F)F)c3)[C@@H](C(F)(F)F)O2)c(F)c1 [Example 11, 4-((2R,5S)-5-((4-cyano-2-fluorophenoxy)methyl)-2-(trifluoromethyl)oxazolidin-3-yl)-2-(trifluoromethyl)benzonitrile]
IC50 (androgen receptor (hAR) [1]; [3]): 10.5 nM
EC50 (androgen receptor (hAR) [2]): 4.5 nM

N#Cc1ccc(N2C[C@@H](COc3ccc([N+](=O)[O-])cc3F)O[C@@H]2C(F)(F)F)cc1C(F)(F)F [Example 33, 4-((2R,5S)-5-((2-fluoro-4-nitrophenoxy)methyl)-2-(trifluoromethyl)oxazolidin-3-yl)-2-(trifluoromethyl)benzonitrile]
IC50 (androgen receptor (hAR) [1]; [3]): 10.4 nM
EC50 (androgen receptor (hAR) [2]): 10.7 nM

CC(=O)Nc1ccc(OC[C@@H]2CN(c3ccc(C#N)c(C(F)(F)F)c3)[C@@H](C(F)(F)F)O2)cc1 [Example 25, N-(4-(((2R,5S)-3-(4-cyano-3-(trifluoromethyl)phenyl)-2-(trifluoromethyl)oxazolidin-5-yl)methoxy)phenyl)acetamide]
IC50 (androgen receptor (hAR) [1]; [3]): 8.5 nM
EC50 (androgen receptor (hAR) [2]): 0.7 nM
levator ani muscle weight % relative to intact control group (castrated male rats; 0.01 mg/kg): 6.7 ± 1.6%
seminal vesicles weight % relative to intact control group (castrated male rats; 0.01 mg/kg): 0.9 ± 0.2%
ventral prostate weight % relative to intact control group (castrated male rats; 0.01 mg/kg): 1.8 ± 0.3%
levator ani muscle weight % relative to intact control group (castrated male rats; 0.03 mg/kg): 8.4 ± 1.5%
seminal vesicles weight % relative to intact control group (castrated male rats; 0.03 mg/kg): 0.7 ± 0.2%
ventral prostate weight % relative to intact control group (castrated male rats; 0.03 mg/kg): 1.0 ± 0.4%
levator ani muscle weight % relative to intact control group (castrated male rats; 0.1 mg/kg): 26.5 ± 5.8%
seminal vesicles weight % relative to intact control group (castrated male rats; 0.1 mg/kg): 0.9 ± 0.2%
ventral prostate weight % relative to intact control group (castrated male rats; 0.1 mg/kg): 3.2 ± 0.9%
levator ani muscle weight % relative to intact control group (castrated male rats; 0.3 mg/kg): 38.5 ± 4.8%
seminal vesicles weight % relative to intact control group (castrated male rats; 0.3 mg/kg): 3.4 ± 0.4%
ventral prostate weight % relative to intact control group (castrated male rats; 0.3 mg/kg): 4.8 ± 1.6%
levator ani muscle weight % relative to intact control group (castrated male rats; 1 mg/kg): 61.1 ± 6.3%
seminal vesicles weight % relative to intact control group (castrated male rats; 1 mg/kg): 4.7 ± 1.2%
ventral prostate weight % relative to intact control group (castrated male rats; 1 mg/kg): 10.9 ± 3.4%
levator ani muscle weight % relative to intact control group (castrated male rats; 3 mg/kg): 79.8 ± 6.7%
seminal vesicles weight % relative to intact control group (castrated male rats; 3 mg/kg): 8.7 ± 1.6%
ventral prostate weight % relative to intact control group (castrated male rats; 3 mg/kg): 12.7 ± 2.5%

N#Cc1ccc(SC[C@@H]2CN(c3ccc(C#N)c(C(F)(F)F)c3)[C@@H](C(F)(F)F)O2)cc1 [Example 29, 4-((2R,5S)-5-(((4-cyanophenyl)thio)methyl)-2-(trifluoromethyl)oxazolidin-3-yl)-2-(trifluoromethyl)benzonitrile]
IC50 (androgen receptor (hAR) [1]; [3]): 14.1 nM
EC50 (androgen receptor (hAR) [2]): 7.5 nM

CN(C)C(=O)c1ccc(OC[C@@H]2CN(c3ccc(C#N)c(C(F)(F)F)c3)[C@@H](C(F)(F)F)O2)cc1 [Example 34, 4-(((2R,5S)-3-(4-cyano-3-(trifluoromethyl)phenyl)-2-(trifluoromethyl)oxazolidin-5-yl)methoxy)-N,N-dimethylbenzamide]
IC50 (androgen receptor (hAR) [1]): 24.1 nM
EC50 (androgen receptor (hAR) [2]): 111 nM
